# Data: patent publication US8952024B2, “Herbicidal pyrimidone derivatives” (E I du Pont de Nemours and Company, priority 2009, dated 2015)
# Columns and labels:
# Format in all cases: in vivo
# [1] = system: barnyardgrass (Echinochloa crus-galli); assay: Test B flooded paddy test; settings: for Plant response rating, Flood, Barnyardgrass: 250 g ai/ha, flooded paddy test, visual rating on 0 to 100 scale (0 no effect, 100 complete control) after 13 to 15 days; for Plant response rating, Barnyardgrass: Flood (flooded paddy test), 13 to 15 days; for Barnyardgrass plant response rating: Flood, 31 g ai/ha, scale 0 to 100 (0 no effect, 100 complete control)
# In short: (§1)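 Visual scores run from 0 (no effect) to 100 (complete control), assigned by comparison with controls 13 to 15 days after treatment. Test compounds went straight into water standing 3 cm above the soil, around plants at the 2-leaf stage kept in a greenhouse.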
# [2] = system: umbrella sedge (Cyperus difformis); assay: Test B flooded paddy test; settings: for Plant response rating, Flood, Sedge, Umbrella: 250 g ai/ha, flooded paddy test, visual rating on 0 to 100 scale (0 no effect, 100 complete control) after 13 to 15 days; for Plant response rating, Sedge, Umbrella: Flood (flooded paddy test), 13 to 15 days; for Sedge, Umbrella plant response rating: Flood, 31 g ai/ha, scale 0 to 100 (0 no effect, 100 complete control)
# In short: as §1
# [3] = system: ducksalad (Heteranthera limosa); assay: Test B flooded paddy test; settings: for Plant response rating, Flood, Ducksalad: 250 g ai/ha, flooded paddy test, visual rating on 0 to 100 scale (0 no effect, 100 complete control) after 13 to 15 days; for Plant response rating, Ducksalad: Flood (flooded paddy test), 13 to 15 days; for Ducksalad plant response rating: Flood, 31 g ai/ha, scale 0 to 100 (0 no effect, 100 complete control)
# In short: as §1
# rice (Oryza sativa) = assay: Test B flooded paddy test; settings: for Plant response rating, Flood, Rice: 250 g ai/ha, flooded paddy test, visual rating on 0 to 100 scale (0 no effect, 100 complete control) after 13 to 15 days; for Plant response rating, Rice: Flood (flooded paddy test), 13 to 15 days; for Rice plant response rating: Flood, 31 g ai/ha, scale 0 to 100 (0 no effect, 100 complete control)
# In short: as §1
# [4] = system: velvetleaf (Abutilon theophrasti); assay: Test A pre-/postemergence plant response
# In short: (§2)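 Seeds planted in loam soil/sand blend; test chemicals in non-phytotoxic solvent mixture with surfactant applied as directed soil spray preemergence and, concurrently, postemergence to plants 2–10 cm tall at one- to two-leaf stage. Greenhouse ~10 days; visual injury vs untreated controls, 0 (no effect) to 100 (complete control).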
# [5] = system: barnyardgrass (Echinochloa crus-galli); assay: Test A pre-/postemergence plant response
# In short: as §2
# [6] = system: morningglory (Ipomoea spp.); assay: Test A pre-/postemergence plant response
# In short: as §2
# [7] = system: large crabgrass (Digitaria sanguinalis); assay: Test A pre-/postemergence plant response
# In short: as §2
# [8] = system: wheat (Triticum aestivum); assay: Test A pre-/postemergence plant response
# In short: as §2
# corn (Zea mays) = assay: Test A pre-/postemergence plant response
# In short: as §2
# [9] = system: giant foxtail (Setaria faberii); assay: Test A pre-/postemergence plant response
# In short: as §2
# [10] = system: pigweed (Amaranthus retroflexus); assay: Test A pre-/postemergence plant response
# In short: as §2
# [11] = 62 g ai/ha, scale of 0 to 100 where 0 is no effect and 100 is complete control
# [12] = 125 g ai/ha, scale 0 to 100, 0 is no effect, 100 is complete control
# [13] = Postemergence, 125 g ai/ha, 0 to 100 scale where 0 is no effect and 100 is complete control
# [14] = Postemergence, 500 g ai/ha, 0 to 100 scale, 0 = no effect, 100 = complete control, approx. ten days
# [15] = Preemergence, 125 g ai/ha, 0 to 100 scale, 0 = no effect, 100 = complete control
# [16] = Preemergence, 500 g ai/ha, 0 to 100 scale, 0 = no effect, 100 = complete control
# [17] = Preemergence, 500 g ai/ha, visual injury, 0 to 100 scale (0 no effect, 100 complete control), approx. ten days
compound,measurement,setting,value
COCCn1c(-c2cccc(Cl)c2)ncc(C(=O)C2=C(O)CCCC2=O)c1=O [Compound 147],"Plant response rating, Flood, Barnyardgrass",[1],75
same,"Plant response rating, Barnyardgrass",[1]; [11],10
same,"Plant response rating, Barnyardgrass",[1]; [12],45
same,Barnyardgrass plant response rating,[1],0
same,"Plant response rating, Flood, Sedge, Umbrella",[2],80
same,"Plant response rating, Sedge, Umbrella",[2]; [11],40
same,"Plant response rating, Sedge, Umbrella",[2]; [12],40
same,"Sedge, Umbrella plant response rating",[2],0
same,"Plant response rating, Flood, Ducksalad",[3],100
same,"Plant response rating, Ducksalad",[3]; [11],60
same,"Plant response rating, Ducksalad",[3]; [12],80
same,Ducksalad plant response rating,[3],60
same,"Plant response rating, Flood, Rice",rice (Oryza sativa),15
same,"Plant response rating, Rice",rice (Oryza sativa); [11],0
same,"Plant response rating, Rice",rice (Oryza sativa); [12],10
same,Rice plant response rating,rice (Oryza sativa),0
same,"Plant response rating, Velvetleaf",[4]; [13],100
same,"Plant response rating, Velvetleaf",[4]; [14],100
same,"Plant response rating, Velvetleaf",[4]; [15],80
same,"Plant response rating, Velvetleaf",[4]; [16],100
same,"Plant response rating, Barnyardgrass",[5]; [13],80
same,"Plant response rating, Barnyardgrass",[5]; [14],90
same,"Plant response rating, Barnyardgrass",[5]; [15],70
same,"Plant response rating, Barnyardgrass",[5]; [17],100
same,"Plant response rating, Morningglory",[6]; [13],100
same,"Plant response rating, Morningglory",[6]; [14],100
same,"Plant response rating, Morningglory",[6]; [15],40
same,"Plant response rating, Morningglory",[6]; [17],90
same,"Plant response rating, Crabgrass, Large",[7]; [13],80
same,"Plant response rating, Crabgrass, Large",[7]; [14],90
same,"Plant response rating, Crabgrass, Large",[7]; [15],100
same,"Plant response rating, Crabgrass, Large",[7]; [17],100
same,"Plant response rating, Wheat",[8]; [13],20
same,"Plant response rating, Wheat",[8]; [14],60
same,"Plant response rating, Wheat",[8]; [15],0
same,"Plant response rating, Wheat",[8]; [16],20
same,"Plant response rating, Corn",corn (Zea mays); [13],20
same,"Plant response rating, Corn",corn (Zea mays); [14],30
same,"Plant response rating, Corn",corn (Zea mays); [15],0
same,"Plant response rating, Corn",corn (Zea mays); [17],0
same,"Plant response rating, Foxtail, Giant",[9]; [13],70
same,"Plant response rating, Foxtail, Giant",[9]; [14],80
same,"Plant response rating, Foxtail, Giant",[9]; [15],70
same,"Plant response rating, Foxtail, Giant",[9]; [17],90
same,"Plant response rating, Pigweed",[10]; [13],100
same,"Plant response rating, Pigweed",[10]; [14],100
same,"Plant response rating, Pigweed",[10]; [15],90
same,"Plant response rating, Pigweed",[10]; [17],100
CCCn1c(-c2cc(F)cc(F)c2)ncc(C(=O)C2=C(O)CCCC2=O)c1=O [Compound 152],"Plant response rating, Flood, Barnyardgrass",[1],75
same,"Plant response rating, Barnyardgrass",[1]; [11],25
same,"Plant response rating, Barnyardgrass",[1]; [12],50
same,Barnyardgrass plant response rating,[1],15
same,"Plant response rating, Flood, Sedge, Umbrella",[2],100
same,"Plant response rating, Sedge, Umbrella",[2]; [11],0
same,"Plant response rating, Sedge, Umbrella",[2]; [12],85
same,"Sedge, Umbrella plant response rating",[2],0
same,"Plant response rating, Flood, Ducksalad",[3],100
same,"Plant response rating, Ducksalad",[3]; [11],90
same,"Plant response rating, Ducksalad",[3]; [12],100
same,Ducksalad plant response rating,[3],0
same,"Plant response rating, Flood, Rice",rice (Oryza sativa),60
same,"Plant response rating, Rice",rice (Oryza sativa); [11],20
same,"Plant response rating, Rice",rice (Oryza sativa); [12],30
same,Rice plant response rating,rice (Oryza sativa),20
same,"Plant response rating, Velvetleaf",[4]; [13],100
same,"Plant response rating, Velvetleaf",[4]; [14],100
same,"Plant response rating, Velvetleaf",[4]; [15],60
same,"Plant response rating, Velvetleaf",[4]; [16],100
same,"Plant response rating, Barnyardgrass",[5]; [13],100
same,"Plant response rating, Barnyardgrass",[5]; [14],100
same,"Plant response rating, Barnyardgrass",[5]; [15],50
same,"Plant response rating, Barnyardgrass",[5]; [17],100
same,"Plant response rating, Morningglory",[6]; [13],100
same,"Plant response rating, Morningglory",[6]; [14],100
same,"Plant response rating, Morningglory",[6]; [15],60
same,"Plant response rating, Morningglory",[6]; [17],80
same,"Plant response rating, Crabgrass, Large",[7]; [13],90
same,"Plant response rating, Crabgrass, Large",[7]; [14],100
same,"Plant response rating, Crabgrass, Large",[7]; [15],90
same,"Plant response rating, Crabgrass, Large",[7]; [17],100
same,"Plant response rating, Wheat",[8]; [13],20
same,"Plant response rating, Wheat",[8]; [14],70
same,"Plant response rating, Wheat",[8]; [15],20
same,"Plant response rating, Wheat",[8]; [16],50
same,"Plant response rating, Corn",corn (Zea mays); [13],0
same,"Plant response rating, Corn",corn (Zea mays); [14],50
same,"Plant response rating, Corn",corn (Zea mays); [15],0
same,"Plant response rating, Corn",corn (Zea mays); [17],30
same,"Plant response rating, Foxtail, Giant",[9]; [13],80
same,"Plant response rating, Foxtail, Giant",[9]; [14],100
same,"Plant response rating, Foxtail, Giant",[9]; [15],60
same,"Plant response rating, Foxtail, Giant",[9]; [17],90
same,"Plant response rating, Pigweed",[10]; [13],100
same,"Plant response rating, Pigweed",[10]; [14],100
same,"Plant response rating, Pigweed",[10]; [15],100
same,"Plant response rating, Pigweed",[10]; [17],100
